Experimental data from ChEMBL document CHEMBL1154851, “Synthesis, antibacterial and antifungal activities of 6,5 fused steroidal oxazoles in cholestane series” (2010).
Values after ≈ are worked out from the molar mass of the structure shown.

Columns and labels:
[1] = system: Staphylococcus aureus; experiment: Antimicrobial activity against Staphylococcus aureus after 18 hrs by macrodilution test; format: functional
[2] = system: Salmonella enterica; experiment: Antimicrobial activity against Salmonella Typhimurium after 18 hrs by disk diffusion method; format: functional, Salmonella enterica subsp. enterica serovar Typhimurium
[3] = system: Salmonella enterica; experiment: Antimicrobial activity against Salmonella Typhimurium after 18 hrs by macrodilution test; format: functional, Salmonella enterica subsp. enterica serovar Typhimurium
[4] = system: Escherichia coli; experiment: Antimicrobial activity against Escherichia coli after 18 hrs by disk diffusion method; format: functional
[5] = system: Streptococcus pyogenes; experiment: Antimicrobial activity against Streptococcus pyogenes after 18 hrs by disk diffusion method; format: functional
[6] = system: Fusarium oxysporum; experiment: Antimicrobial activity against Fusarium oxysporum at 100 ug/ml after 48 hrs by disk diffusion method; format: functional; settings: read-out: DIZ
[7] = system: Staphylococcus aureus; experiment: Antimicrobial activity against Staphylococcus aureus after 18 hrs by disk diffusion method; format: functional
[8] = system: Nakaseomyces glabratus; experiment: Antimicrobial activity against Candida glabrata at 100 ug/ml after 48 hrs by disk diffusion method; format: functional; settings: read-out: DIZ
[9] = system: Pseudomonas aeruginosa; experiment: Antimicrobial activity against Pseudomonas aeruginosa after 18 hrs by macrodilution test; format: functional
[10] = system: Bacillus subtilis; experiment: Antimicrobial activity against Bacillus subtilis after 18 hrs by disk diffusion method; format: functional
[11] = system: Aspergillus niger; experiment: Antimicrobial activity against Aspergillus niger at 100 ug/ml after 48 hrs by disk diffusion method; format: functional; settings: read-out: DIZ
[12] = system: Candida albicans; experiment: Antimicrobial activity against Candida albicans at 100 ug/ml after 48 hrs by disk diffusion method; format: functional; settings: read-out: DIZ
[13] = system: Bacillus subtilis; experiment: Antimicrobial activity against Bacillus subtilis after 18 hrs by macrodilution test; format: functional
[14] = system: Streptococcus pyogenes; experiment: Antimicrobial activity against Streptococcus pyogenes after 18 hrs by macrodilution test; format: functional
[15] = system: Escherichia coli; experiment: Antimicrobial activity against Escherichia coli after 18 hrs by macrodilution test; format: functional
[16] = system: Pseudomonas aeruginosa; experiment: Antimicrobial activity against Pseudomonas aeruginosa after 18 hrs by disk diffusion method; format: functional
[17] = system: Penicillium; experiment: Antimicrobial activity against Penicillium at 100 ug/ml after 48 hrs by disk diffusion method; format: functional; settings: read-out: DIZ
[18] = system: Fusarium oxysporum; experiment: Antimicrobial activity against Fusarium oxysporum at 30 ug after 48 hrs by disk diffusion method; format: functional, organism-based
[19] = system: Candida albicans; experiment: Antimicrobial activity against Candida albicans at 30 ug after 48 hrs by disk diffusion method; format: functional, organism-based
[20] = system: Penicillium; experiment: Antimicrobial activity against Penicillium at 30 ug after 48 hrs by disk diffusion method; format: functional, organism-based
[21] = system: Nakaseomyces glabratus; experiment: Antimicrobial activity against Candida glabrata at 30 ug after 48 hrs by disk diffusion method; format: functional, organism-based
[22] = system: Aspergillus niger; experiment: Antimicrobial activity against Aspergillus niger at 30 ug after 48 hrs by disk diffusion method; format: functional, organism-based

Compound	MIC [1] [µg/mL]	inhibition zone (IZ) [2] [mm]	MIC [3] [µg/mL]	inhibition zone (IZ) [4] [mm]	inhibition zone (IZ) [5] [mm]	zone of inhibition at 100 µg/mL [6] [mm]	inhibition zone (IZ) [7] [mm]	zone of inhibition at 100 µg/mL [8] [mm]	MIC [9] [µg/mL]	inhibition zone (IZ) [10] [mm]	zone of inhibition at 100 µg/mL [11] [mm]	zone of inhibition at 100 µg/mL [12] [mm]	MIC [13] [µg/mL]	MIC [14] [µg/mL]	MIC [15] [µg/mL]	inhibition zone (IZ) [16] [mm]	zone of inhibition at 100 µg/mL [17] [mm]	further results
CC(=O)O[C@H]1CC[C@]2(C)[C@H]3CC[C@]4(C)[C@@H]([C@H](C)CCCC(C)C)CC[C@H]4[C@@H]3C=C3N=C(N)O[C@@]32C1	128 (≈ 264 µM)	13.2	128 (≈ 264 µM)	14.1	12.5	12.1	12.8	10.1	64 (≈ 132 µM)	13.1	11.2	20.1	32 (≈ 66 µM)	128 (≈ 264 µM)	128 (≈ 264 µM)	15	15.1	–
O=C(N[C@H](CO)[C@H](O)c1ccc([N+](=O)[O-])cc1)C(Cl)Cl [CHLORAMPHENICOL]	32 (≈ 99 µM)	25.2	32 (≈ 99 µM)	20	22.4	–	21	–	32 (≈ 99 µM)	26.8	–	–	32 (≈ 99 µM)	32 (≈ 99 µM)	32 (≈ 99 µM)	17.1	–	–
NYSTATIN	–	–	–	–	–	–	–	–	–	–	–	–	–	–	–	–	–	inhibition zone (IZ) [18]: 19.5 mm; inhibition zone (IZ) [19]: 29 mm; inhibition zone (IZ) [20]: 24.5 mm; inhibition zone (IZ) [21]: 29 mm; inhibition zone (IZ) [22]: 19.5 mm
CC(C)CCC[C@@H](C)[C@H]1CC[C@H]2[C@@H]3C=C4N=C(N)O[C@@]45C[C@@H](Cl)CC[C@]5(C)[C@H]3CC[C@]12C	64 (≈ 139 µM)	14.1	64 (≈ 139 µM)	16.1	15.1	13.1	15.1	15.2	64 (≈ 139 µM)	15.2	12.5	21.5	64 (≈ 139 µM)	128 (≈ 278 µM)	128 (≈ 278 µM)	16.5	16.2	–
CC(C)CCC[C@@H](C)[C@H]1CC[C@H]2[C@@H]3C=C4N=C(N)O[C@@]45CCCC[C@]5(C)[C@H]3CC[C@]12C	128 (≈ 300 µM)	11.5	128 (≈ 300 µM)	13.1	11.2	10.1	10.8	9.2	128 (≈ 300 µM)	12.1	10.1	19.1	128 (≈ 300 µM)	256 (≈ 600 µM)	256 (≈ 600 µM)	13.5	14.5	–
